# From patent US12486218B2, “Compounds advantageous in the treatment of central nervous system diseases and disorders” (AurimMed Pharma, Inc., priority 2008, dated 2025)
# Values joined by “and” are separate entries in the source; they are usually repeats but may differ in a detail not shown here. Identical values can stand only once. Like-named read-outs stand apart in the source and are kept apart here.
# Key:
# SMN2 promoter = SMN2 promoter β-lactamase reporter assay in NSC34 motor neuron-like cells; format: cell-based
# Method: FIG. 30 illustrates a screen for SMN2 expression of a number of compounds described herein.
# SMN2 promoter activity was measured using NSC34 motor neuron-like cells stably transfected with a β-lactamase (BLA) reporter gene under the control of a 3.4-kilobase fragment of the SMN2 promoter. D156844 was used as a positive control for this assay.
# mice [1] = details: mouse, in vivo, ip
# Method: (§1) The animal testing was performed according to methods known in the relevant art.
# rats [2] = test: Pilocarpine-induced Status Epilepticus in Rats (prevention; intervention @ 30 min); details: for Prevention, Protection: rat, in vivo, 200 mg/kg
# Method: The animal testing was performed using the protocols developed in the Anticonvulsant Screening Program (ASP) at the National Institute of Neurological Disorders and Stroke (NINDS), National Institutes of Health (NIH).
# mice [3] = test: Maximal Electroshock Seizure (MES) test, mice i.p.; format: in vivo; details: for ED50: Mus musculus
# mice [4] = test: 6 Hz (minimal clonic seizure) model, mice i.p.; format: in vivo; details: ip; for ED50: Mus musculus
# mice [5] = test: Subcutaneous Metrazol Seizure threshold (s.c. MET) test, mice i.p.; format: in vivo; details: for ED50: Mus musculus
# rats [6] = test: Minimal motor impairment (MID50), rats p.o.; format: in vivo
# rats [7] = test: MES test, rats p.o.; format: in vivo; details: for ED50: Rattus norvegicus, po
# rats [8] = test: s.c. MET test, rats p.o.; format: in vivo; details: for ED50: Rattus norvegicus, p.o.
# rats [9] = test: Preliminary Hippocampal Kindling Screening in rats (i.p.); format: in vivo; details: at 65 mg/kg
# rats [10] = test: Hippocampal Kindled Rats model; format: in vivo; details: for ED50: Rattus norvegicus
# C3A hepatocyte cells [11] = test: ACTIVTox LDH release assay; format: cell-based; details: for LDH release, mean fold control: at 100 μM, C3A hepatocyte cells, value below 1.75 = no cyto- or hepatotoxic activity; for cyto- or hepatotoxicity, ACTIVTox data: at physiologically relevant concentrations (i.e., <100 µM)
# Method: Compounds A, I, H, and F were tested by Stem Cell Innovations, Inc. (Houston, TX) in their ACTIVTox® Human Liver Cell-based assays (using C3A hepatocyte cells). Specifically, the compounds were tested in the LDH release assay, which determines the release of Lactate DeHydrogenase (an indicator of cell death) at various concentrations of test compound.
# A concentration of 100 µM of test compound is a much higher level of exposure to liver cells than would ever be expected under physiological conditions. Therefore, using 100 μM as a standard test concentration (for comparative purposes), the ratio of the absorbance (which measures the level of LDH release) resulting from the presence of the test compound versus the negative control is a value known as the “average (or mean) fold control” (Average Fold Control=Average of Absorbance/Average of Negative Control).
# C3A hepatocyte cells [12] = test: ACTIVTox Cell Proliferation Assay; format: cell-based; details: at a concentration of 100 μM
# [13] = tested on: inclusion of exon 7 in SMN2 mRNAs; test: Exon 7 inclusion BLA reporter assay in NSC34 cell line; format: cell-based
# Source text: To measure changes in the inclusion of exon 7 in SMN2 mRNAs, another NSC34 cell line was used that stably transfected with a reporter construct which expresses BLA when exon 7 is included in the SMN2 minigene mRNAs. 5-(N-ethyl-N-isopropyl)-amiloride (EIPA) was used as a positive control for this assay. Data for tis assay is illustrated in FIG. 30.
# in vivo = details: mouse, ip
# Method: as §1
# mice [14] = test: Minimal motor impairment (MID50), mice i.p.; details: for MID50 (median minimal motor impairment dose): mice, i.p.
# Method: as §1
# rats [15] = test: Sciatic nerve ligation model in rats; format: in vivo; details: 100 mg/kg
# Method: [The response (threshold for foot withdrawal) was measured in grams.]
# mice [16] = test: Audiogenic Seizure susceptible (AGS) test, mice i.p.; format: in vivo; details: Mus musculus, ip
# mice [17] = test: Corneal kindled mouse model; format: in vivo; details: for ED50: Mus musculus
# [18] = tested on: rat dopaminergic N27 cells; test: N27 protection assay against oxidative stress (H2O2 or MPP+; MTT and LDH); format: cell-based; details: drug 24 hours before 200 μM H2O2 or 640 μM MPP+
# Procedure, shortened: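 Protection mode: N27 cells pretreated with drug at various concentrations for 24 hours, then exposed to 200 μM H2O2 or 640 μM MPP+. Recovery mode: cells damaged by H2O2 first, drug applied afterwards. Viability measured by MTT reduction and cytotoxicity by released LDH.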
# [19] = tested on: type II SMA fibroblasts (GM03813); test: SMN protein localization, gem counting in type II SMA fibroblasts; format: cell-based; details: 100 nM-10 μM, 5 days
# Method: To validate the SMN2 promoter and exon 7 screens, the effects of compounds H, H (acid form), AY, F, BX, and BY were evaluated on the basis of expression and localization of SMN protein in type II SMA fibroblasts (GM03813). In a normal cell, SMN protein localized within the nucleus to discreet foci known as gems. In SMN-deficient SMA cells, the number of gems is greatly diminished. Although the function of gems is unknown, it is believed that they are somehow involved in the snRNP assembly function of SMN. Gem counting can, therefore, be considered an assay for SMN function.
# GM03813 fibroblasts were treated with different doses (100 nM-10 μM) of compounds H, H (acid form), AY, F, BX, and BY for 5 days. SMN immunostaining was then completed on these cells and the number of gems was counted in 100 randomly-selected nuclei. […] In fact, the gem counts at the highest dose of compound H approach those observed for carrier fibroblasts (GM03814). When compared against treatment with 1 μM D157495—a D156844 derivative, all of the compounds tested performed as well as or, even better than D157495.
# sodium channels = details: by way of comparison; cited from earlier work
# rats [20] = details: male versus female kindled rats; cited from earlier work
# [21] = mice, i.p., read-out: 6 Hz ED50
# [22] = Rattus norvegicus, 0.5 h, read-out: Intervention @ 30 min, Protection
# [23] = Rattus norvegicus, read-out: Prevention, Protection
smiles,measurement,setting,value
COc1ccc(C(C)CC(N)=O)cc1 (racemic) [BZ],"Promoter (SMN2 promoter test, summary YES/NO)",SMN2 promoter,YES
same,SMN2 promoter activity,SMN2 promoter,increased SMN2 promoter activity
same,"MID50, result in words",mice [1],No
same,"Prevention, Protection",rats [2],100%
"Cc1ccc(C(CC(N)=O)C2CC2)cc1 (stereo not shown) [AL, 3-Cyclopropyl-3-ρ-tolyl-propionamide]",activity in the MES test,"mice [3]; mouse, in vivo, 100 mg/kg",activity
same,"6 Hz (32 mA), fraction of animals","mice [4]; mouse, in vivo, 100 mg/kg","4/4, 2/4, and 2/4 , 1/4 @"
same,SMN2 promoter activity,SMN2 promoter,increased SMN2 promoter activity
same,"MID50, result in words",mice [1],No
same,"Prevention, Protection",rats [2],100%
NC(=O)CC1(c2cccc(Cl)c2)CCCC1 [CX],"MES, fraction of animals","mice [3]; mouse, in vivo, ip, 100 mg/kg","4/4 @ and 3/4, 2/4 @"
same,"s.c. MET, fraction of animals","mice [5]; mouse, in vivo, 100 mg/kg",2/4 @ 0.25 hrs
same,"Promoter (SMN2 promoter test, summary YES/NO)",SMN2 promoter,YES
same,SMN2 promoter activity,SMN2 promoter,increased SMN2 promoter activity
same,"MID50, fraction of animals",mice [1]; 100 mg/kg,8/8 @ 0.25 hrs
"CC(C)(CC(N)=O)c1ccc(Cl)cc1 [Compound A, 3-(4-Chlorophenyl)-3-methylbutyramide]",ED50,"mice [3]; ip, mice",41.6 mg/kg
same,ED50,"mice [3]; ip, mice i.p., @ 0.25 hr",41.6 mg/kg
same,ED50,"mice [5]; mice i.p., @ 0.25 hr",39.3 mg/kg
same,ED50,"mice [5]; mice, i.p.",39.3 mg/kg
same,ED50,mice [4]; [21],47.6 mg/kg
same,MID50,rats [6],244.90 mg/kg
same,ED50,rats [7],28.8 mg/kg
same,ED50,rats [8],45 mg/kg
same,"seizure score, Preliminary Hippocampal Kindling Screening",rats [9],zero
same,ED50,rats [10],26 mg/kg
same,"LDH release, mean fold control",C3A hepatocyte cells [11],1.05
same,"cyto- or hepatotoxicity, ACTIVTox data",C3A hepatocyte cells [11],not cyto- or hepatotoxic
same,"Cell Proliferation Assay, mean fold control",C3A hepatocyte cells [12],1.15
same,toxicity to proliferating cells,C3A hepatocyte cells [12],non-toxic
same,SMN2 promoter activity,SMN2 promoter; treatment for 19 hours at a concentration of 1 μM,increased SMN2 promoter activity
same,effect on the inclusion of exon 7 in SMN2 transcripts,[13]; NSC34 exon 7 BLA reporter cells,positive effect on the inclusion of exon 7
same,Exon 7 inclusion (summary YES/NO),[13]; Table 13 summary,YES
same,TD50,in vivo,108 mg/kg
same,MID50 (median minimal motor impairment dose),mice [14],107.87 mg/kg
same,responders at 120 mg/kg,rats [2]; [22],57%
same,responders at 65 mg/kg,rats [2]; [23],86%
"CC(CC(N)=O)c1cccc(C(F)(F)F)c1 (stereo not shown) [Compound G, 3-[3-(trifluoromethyl)-phenyl]butyramide]",ED50,"mice [3]; ip, mice",< 100 mg/kg
same,"MES, fraction of animals","mice [3]; mice i.p., 100 mg/kg @ 0.5 hr",3/3 @0.5
same,"MES, fraction of animals","mice [3]; mice i.p., 100 mg/kg @ 4.0 hr","hr, 1/3 @"
same,ED50,"mice [5]; mice, i.p.",≤ 100 mg/kg
same,"s.c. MET, fraction of animals","mice [5]; mice i.p., 100 mg/kg @ 0.5 hr",1/1 @0.5
same,activity in the MES test,rats [7]; at 30 mg/kg,activity
same,activity in the s.c. MET test,rats [8]; at 30 mg/kg,activity
same,"seizure score, Hippocampal Kindled Rats model","rats [10]; rats, at 100 mg/kg",significantly lowering the seizure score
same,allodynic threshold,rats [15]; 1 hour post-administration,275 % of the control
same,allodynic threshold,rats [15]; 2 hours post-administration,219 % of the control
same,allodynic threshold,rats [15]; 4 hours post-administration,175 % of the control
same,"MID50, fraction of animals","mice [14]; mice i.p., 100 mg/kg @ 0.5 hr",7/8 @0.5 hr
same,MID50 (median minimal motor impairment dose),mice [14],<100 mg/kg
same,responders at 200 mg/kg,rats [2]; [22],88%
same,responders at 200 mg/kg,rats [2]; [23],100%
"CC(CC(N)=O)c1ccc(C(F)(F)F)cc1 (stereo not shown) [F, 3-[4-(trifluoromethyl)-phenyl]butyramide]",ED50,"mice [3]; ip, mice",85.3 mg/kg
same,ED50,"mice [3]; ip, mice i.p., @ 2.0 hrs",85.3 mg/kg
same,ED50,"mice [5]; mice i.p., @ 1.0 hr",85.5 mg/kg
same,ED50,"mice [5]; mice, i.p.",85.5 mg/kg
same,ED50,mice [16]; mice,41.3 mg/kg
same,ED50,"mice [16]; mice i.p., @ 2.0 hrs",41.3 mg/kg
same,ED50,"mice [4]; mice i.p., @ 0.5 hrs, read-out: 6 Hz (32 mA) ED50",80.8 mg/kg
same,ED50,mice [4]; [21],80.8 mg/kg
same,ED50,"mice [17]; ip, mice i.p., @1.0 hrs, read-out: Corneal Kindled ED50",60.6 mg/kg
same,ED50,"mice [17]; read-out: ED50, corneal kindled mouse model",60.6 mg/kg
same,"seizure score, corneal kindled mouse model",mice [17]; at 100 mg/kg,zero
same,MID50,rats [6],>500 (none observed) mg/kg
same,ED50,rats [7],26.4 mg/kg
same,ED50,rats [8],> 250 mg/kg
same,ED50,rats [10],29 mg/kg
same,"LDH release, mean fold control",C3A hepatocyte cells [11],1.47
same,"cyto- or hepatotoxicity, ACTIVTox data",C3A hepatocyte cells [11],not cyto- or hepatotoxic
same,neuroprotective effect against H2O2 and MPP+ oxidative stresses (MTT and LDH assays),[18],"statistically significant, dose-dependent neuroprotection"
same,"gem counts (SMN immunostaining, 100 nuclei)",[19],increase gem counts in a dose-dependent manner
same,TD50,in vivo,> 200 mg/kg
same,MID50 (TD50),"mice [14]; mice i.p., @ 0.25 hr",208.37
same,MID50 (median minimal motor impairment dose),mice [14],208.37 mg/kg
same,responders at 65 mg/kg,rats [2]; [23],14%
Nc1nnc(-c2cccc(Cl)c2Cl)c(N)n1 [lamotrigine],"% of control inhibited, sodium currents, typical sodium-channel-blocking drugs",sodium channels,about 50%
O=C1NC(=O)C(c2ccccc2)(c2ccccc2)N1 [phenytoin],"% of control inhibited, sodium currents, typical sodium-channel-blocking drugs",sodium channels,about 50%
same,efficacy in the two genders (comparison drug),rats [20],significantly less effective in male kindled rats than it is in female kindled rats
